From US12398151B2, “Sumo inhibitor compounds and uses thereof” (SUVALENT THERAPEUTICS, INC., priority 2019, dated 2025)
Read-outs that look alike come from different tables or passages of the source.

Key:
[1] = target: T1, SUMO E1 (Homo sapiens, UniProt Q9UBT2); test: SUMO E1 inhibition: UBC9-SUMO1 conjugation by SDS gel electrophoresis; format: biochemical; conditions: for inhibition at 27 µM: 27 uM compound; for inhibition at 10 µM: 10 uM compound; for inhibition at 9 µM: 9 uM compound
T1 sequence (Q9UBT2 1-640): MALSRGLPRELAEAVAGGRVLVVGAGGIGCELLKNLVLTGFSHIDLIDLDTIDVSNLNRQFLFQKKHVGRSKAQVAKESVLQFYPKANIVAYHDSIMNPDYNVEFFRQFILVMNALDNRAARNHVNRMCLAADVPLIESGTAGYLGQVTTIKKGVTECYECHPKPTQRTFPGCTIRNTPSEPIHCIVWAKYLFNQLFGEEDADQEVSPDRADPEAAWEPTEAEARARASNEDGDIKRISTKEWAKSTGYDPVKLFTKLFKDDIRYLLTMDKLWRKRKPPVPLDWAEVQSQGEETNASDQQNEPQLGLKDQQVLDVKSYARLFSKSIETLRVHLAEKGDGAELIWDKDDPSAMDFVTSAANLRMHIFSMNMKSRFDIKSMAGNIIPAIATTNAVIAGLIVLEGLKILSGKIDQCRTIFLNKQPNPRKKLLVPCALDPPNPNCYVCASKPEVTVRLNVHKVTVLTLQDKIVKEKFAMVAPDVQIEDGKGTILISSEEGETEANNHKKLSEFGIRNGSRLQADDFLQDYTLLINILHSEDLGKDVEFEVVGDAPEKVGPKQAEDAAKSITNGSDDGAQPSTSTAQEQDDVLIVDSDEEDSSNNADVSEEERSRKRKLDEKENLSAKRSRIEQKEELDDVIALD
T1 sequence (Q9UBE0 1-346 partner): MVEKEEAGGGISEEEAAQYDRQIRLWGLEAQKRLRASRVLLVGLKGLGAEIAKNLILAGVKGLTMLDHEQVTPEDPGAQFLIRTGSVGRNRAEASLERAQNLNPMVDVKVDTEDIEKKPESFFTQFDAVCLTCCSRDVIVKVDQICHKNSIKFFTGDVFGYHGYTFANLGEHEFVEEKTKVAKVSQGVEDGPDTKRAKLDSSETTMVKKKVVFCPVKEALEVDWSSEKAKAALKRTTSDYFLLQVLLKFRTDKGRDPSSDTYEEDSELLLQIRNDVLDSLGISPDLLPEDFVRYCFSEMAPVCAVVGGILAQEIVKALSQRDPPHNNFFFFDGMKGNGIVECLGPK
Description: (§1) Compounds are evaluated for their inhibitory effect on activating enzymes (E1) of ubiquitin, SUMO, Nedd8, Urm1, ISG15 or Atg7 using previously reported methods and protocols. One example is in: Allosteric inhibition of ubiquitin-like modifications by a class of inhibitor of SUMO-activating enzyme. Cell Chemical Biology, 26, 1-11, 2019. PMID: 28051857.
(§2) Compounds are tested in the following manner. The compound and SUMO E1 are incubated for a predetermined amount of time. UBC9, SUMO1, and ATP are added to the E1-compound mixture and incubated at 37° C. The reaction is quenched with Laemmli Buffer. The UBC9-SUMO1 conjugation is analyzed via SDS gel electrophoresis. The percent inhibition is measured by the intensity of the UBC9-SUMO1 band compared to the no compound control. Activities are listed as compound concentration (uM), preincubation time of E1 with compound (min), and percent inhibition of adduct formation (%). […]

[2] = target: T2, Atg7 (Homo sapiens, UniProt O95352); test: Atg7 activating enzyme (E1) inhibition; format: biochemical; conditions: 25 uM compound, 60 min preincubation; for inhibition at 25 µM: read-out: Atg7 percent inhibition of adduct formation
T2 sequence (O95352 1-703): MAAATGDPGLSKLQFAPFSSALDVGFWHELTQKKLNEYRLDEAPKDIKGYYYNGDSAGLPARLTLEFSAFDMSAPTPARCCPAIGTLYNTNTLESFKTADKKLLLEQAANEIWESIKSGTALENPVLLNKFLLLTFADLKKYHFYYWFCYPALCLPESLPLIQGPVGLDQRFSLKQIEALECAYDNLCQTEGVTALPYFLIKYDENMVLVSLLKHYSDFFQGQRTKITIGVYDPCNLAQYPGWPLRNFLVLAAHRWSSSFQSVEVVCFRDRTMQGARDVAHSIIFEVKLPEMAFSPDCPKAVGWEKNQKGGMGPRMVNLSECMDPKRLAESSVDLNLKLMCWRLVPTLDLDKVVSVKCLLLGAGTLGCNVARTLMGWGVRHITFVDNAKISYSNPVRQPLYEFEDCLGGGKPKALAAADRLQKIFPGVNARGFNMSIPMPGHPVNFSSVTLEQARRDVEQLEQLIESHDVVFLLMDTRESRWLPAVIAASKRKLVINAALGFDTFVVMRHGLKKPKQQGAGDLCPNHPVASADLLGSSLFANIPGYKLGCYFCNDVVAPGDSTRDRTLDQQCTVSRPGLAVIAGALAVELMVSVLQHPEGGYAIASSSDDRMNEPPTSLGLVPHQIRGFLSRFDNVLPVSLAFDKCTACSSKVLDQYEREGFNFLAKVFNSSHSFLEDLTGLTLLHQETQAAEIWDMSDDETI
Description: as §1, §2

[3] = 25 uM compound, 60 min preincubation, read-out: SUMO E1 percent inhibition of adduct formation
[4] = 30 min preincubation, read-out: SUMO E1 percent inhibition of adduct formation
[5] = 60 min preincubation, read-out: SUMO E1 percent inhibition of adduct formation

Structure (SMILES) | inhibition at 25 µM [2] | inhibition at 25 µM [1, 3] | also measured
C=CC(=O)N1Cc2cc(Cl)sc2[C@@H](c2ccccc2C)C1 [Compound 127] | < 1% |  | inhibition at 27 µM ([1]; 20 min preincubation, read-out: SUMO E1 percent inhibition of adduct formation): 95%
Cc1ccccc1[C@H]1CN(C(=O)/C=C/C(F)(F)F)Cc2sc(Cl)cc21 [Compound 108] | < 1% |  | inhibition at 1 µM ([1]; 1 uM compound, 30 min preincubation, read-out: SUMO E1 percent inhibition of adduct formation): 100%
C=CC(=O)N1Cc2ccc(Br)cc2[C@@H](c2ccc(Cl)cc2)C1 [Compound 66] |  |  | SUMO E1 percent inhibition of adduct formation ([1]; 25 uM compound, 60 min preincubation, 25 µM): 25 uM 60 min <1%; Atg7 percent inhibition of adduct formation [2]: 25 uM 60 min <1%
C=CC(=O)N1Cc2sc(CCC)cc2[C@@H](c2ccccc2C)C1 [Compound 110] | 80% |  | inhibition at 27 µM [1, 4]: 30%
C=CC(=O)N1Cc2ccccc2[C@@H](c2ccccc2)C1 (stereo in doubt) [Compound 11] | < 1% |  | inhibition at 10 µM [1, 5]: 90%
C=CC(=O)N1Cc2cc(Cl)ccc2[C@@H](c2cccnc2)C1 [Compound 87] | < 1% |  | inhibition at 9 µM [1, 4]: < 1%
C=CC(=O)N1Cc2cc(OCC(C)C)ccc2[C@@H](c2ccccc2)C1 [Compound 48] | < 1% | 30% | 
C=CC(=O)N1Cc2sc(Cl)cc2[C@@H]([C@H]2CCCN(C)C2)C1 [Compound 147] | < 1% |  | inhibition at 9 µM [1, 4]: < 1%
C=CC(=O)N1Cc2ccc(Oc3cccnc3)cc2[C@@H](c2ccccc2)C1 [Compound 31] | < 1% | < 1% | 
Cc1ccccc1[C@H]1CN(C(=O)/C=C/c2ccccc2)Cc2sc(Br)cc21 [Compound 90] | < 1% | < 1% | 
C=CC(=O)N[C@H]1Cc2sccc2[C@@H](c2ccccc2Cl)C1 [Compound 130] | < 1% |  | inhibition at 3 µM ([1]; 3 uM compound, 30 min preincubation, read-out: SUMO E1 percent inhibition of adduct formation): < 1%
C=CC(=O)N1Cc2sc(Cl)cc2[C@@H](c2ccccc2C)C1 [Compound 84] | < 1% |  | inhibition at 2.5 µM ([1]; 2.5 uM compound, 30 min preincubation, read-out: SUMO E1 percent inhibition of adduct formation): 90%
C=CC(=O)N1Cc2ccccc2[C@@H](c2c(F)cccc2F)C1 [Compound 43] | < 1% | < 1% | 
C=CC(=O)N1Cc2cc(Cl)c(Cl)cc2[C@@H](c2ncccc2C)C1 [Compound 98] | < 1% |  | inhibition at 9 µM [1, 4]: < 1%
C=CC(=O)N1Cc2ccc(Br)cc2C1 [Compound 9] | < 1% | < 1% | 
C=CC(=O)N1Cc2oc(C)cc2[C@@H](c2ccccc2)C1 [Compound 83] | < 1% |  | inhibition at 10 µM [1, 4]: < 1%
C=CC(=O)N1Cc2ccc(NS(=O)(=O)c3ccccc3)cc2C1 [Compound 17] | < 1% | 20% | 
C=CC(=O)N1Cc2ccc(Br)cc2[C@@H](c2ccccc2C)C1 [Compound 58] | < 1% | 95% | 
Cc1cc2c(s1)CN(C(=O)/C=C/c1ccccc1)C[C@@H]2c1ccccc1 [Compound 91] | < 1% |  | inhibition at 9 µM [1, 4]: < 1%
C=CC(=O)N1Cc2cc(Br)sc2[C@@H](c2ccccc2C)C1 [Compound 111] | < 1% |  | inhibition at 27 µM [1, 4]: 80%
C=CC(=O)N1Cc2cc(Br)cnc2[C@@H](c2ccccc2)C1 [Compound 88] | < 1% |  | inhibition at 9 µM [1, 4]: < 1%
C=CC(=O)N1Cc2sc(Cl)cc2[C@@H](c2ccco2)C1 [Compound 148] | < 1% |  | inhibition at 9 µM [1, 4]: < 1%
C=CC(=O)N1CCc2cc(Nc3ccccc3)ccc2C1 [Compound 8] | < 1% | < 1% | 
C=CC(=O)N1Cc2ccc(OC)cc2[C@@H](c2ccccc2)C1 [Compound 60] | < 1% | 40% | 

Further lines, with some results ahead:

inhibition at 25 µM [2] | inhibition at 25 µM [1, 3] | Structure (SMILES) | also measured
< 1% | < 1% | C=CC(=O)N1Cc2ccc(N)cc2C1 [Compound 14] | 
< 1% |  | C=CC(=O)N1Cc2ccc(Cl)cc2[C@@H](c2ccccc2)C1 [Compound 63] | inhibition at 10 µM [1, 5]: 50%
< 1% |  | C=CC(=O)N1Cc2sc(Cl)cc2[C@@H](c2csc3ccccc23)C1 [Compound 154] | inhibition at 18 µM ([1]; 18 uM compound, 15 min preincubation, read-out: SUMO E1 percent inhibition of adduct formation): < 1%
< 1% |  | C=CC(=O)N1Cc2sccc2[C@@H]([C@H]2CCCN(C)C2)C1 [Compound 146] | inhibition at 9 µM [1, 4]: < 1%
< 1% | < 1% | C=CC(=O)N1Cc2cc(C#N)ccc2[C@@H](c2ccccc2)C1 [Compound 79] | 
< 1% | < 1% | C=CC(=O)N1Cc2ccc(Oc3ccccc3)cc2[C@@H](c2ccccc2)C1 [Compound 30] | 
100% |  | Cc1ccccc1[C@H]1CN(C(=O)CBr)Cc2sc(Cl)cc21 [Compound 107] | inhibition at 9 µM [1, 4]: 100%
< 1% | 50% | C=CC(=O)Nc1cccc([C@H]2CN(C(=O)C=C)Cc3ccccc32)c1 [Compound 52] | 
< 1% | 40% | C=CC(=O)N1Cc2ccccc2[C@@](C)(c2ccccc2)C1 [Compound 59] | 
< 1% |  | C=CC(=O)N1Cc2sc(CC)cc2[C@@H](c2ccccc2)C1 [Compound 82] | inhibition at 10 µM [1, 4]: 10%
< 1% |  | Cc1ccccc1[C@H]1CN(C(=O)c2cccnc2Cl)Cc2sc(Cl)cc21 [Compound 118] | inhibition at 27 µM [1, 4]: < 1%
< 1% |  | C=CC(=O)N1Cc2cc(Cl)ccc2[C@@H](c2ccccn2)C1 [Compound 80] | inhibition at 25 µM ([1]; 25 uM compound, 30 min preincubation, read-out: SUMO E1 percent inhibition of adduct formation): 50%
< 1% |  | C=CC(=O)N1Cc2sc(Cl)cc2[C@@H](C2=CN(C)CC=C2)C1 [Compound 145] | inhibition at 9 µM [1, 4]: < 1%
< 1% |  | C=CC(=O)N1Cc2cc(C)ccc2[C@@H](c2ccccc2C)C1 [Compound 85] | inhibition at 10 µM [1, 4]: 100%
< 1% |  | C=CC(=O)N1Cc2cc(Br)ccc2[C@@H](c2ccccc2OC)C1 [Compound 70] | inhibition at 10 µM [1, 5]: 60%
< 1% |  | C=CC(=O)N1Cc2cc(Cl)ccc2[C@@H](C2CCCCC2)C1 [Compound 102] | inhibition at 9 µM [1, 4]: 40%
< 1% |  | C=CC(=O)N1Cc2ccc(Br)cc2[C@@H](c2ccccc2Cl)C1 [Compound 46] | inhibition at 9 µM [1, 4]: 50%
